In the supplement of paper PMC8882468:
Several values for one entry are separate records, joined by “and”; a condition that tells them apart may be missing. Equal values may be shown once.

How the values were obtained:
Assay in all cases: CTG-3D luminescence at 96 h relative to day-0 seeding control (ratio to day 0); higher = more growth / less cytotoxicity
HCI-005.E2 = system: HCI-005.E2 (organoid from a breast cancer xenograft with a HER2-positive history)
Protocol: (§1)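 PDxO 3D drug screen (set 2), 8-point dose, 96 h; CTG-3D luminescence normalised to day-0 seeding control (mean of 4 wells each).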

MDA-MB-231 = system: MDA-MB-231
Protocol: as §1

HCI-012 = system: HCI-012 (organoid from a breast cancer xenograft)
Protocol: as §1

HCI-024 = system: HCI-024 (organoid from a breast cancer xenograft)
Protocol: as §1

HCI-025 = system: HCI-025 (organoid from a breast cancer xenograft)
Protocol: as §1

HCI-001 = system: HCI-001 (organoid from a triple-negative breast cancer xenograft)
Protocol: as §1

HCI-011.E2 = system: HCI-011.E2 (organoid from an ER-positive breast cancer xenograft)
Protocol: as §1

CC/C(=C(\c1ccc(O)cc1)c1ccc(OCCN(C)C)cc1)c1ccccc1 [4-hydroxytamoxifen]
CTG-3D luminescence at 96 h
Settings	12.5 pM	0.00025 µM	0.005 µM	0.1 µM	1 µM	10 µM	100 µM	625 fM
HCI-005.E2	1.68	1.99	2.22	2.35	2.26	2.01	0.0139	2.45
HCI-011.E2	1.35	1.71	1.2	1.83	1.35	1.72	0.0138	1.77
MDA-MB-231	5.74 and 4.89	5.63 and 4.98	5.56 and 5.21	5.42 and 5.04	5.45 and 5.21	4.78 and 4.53	0.0254 and 0.0304	5.5 and 5.05

CTG-3D luminescence at 96 h
Settings	12.5 pM	0.00025 µM	0.005 µM	0.1 µM	1 µM	10 µM	100 µM	625 fM
HCI-001, days in culture: 365	2.24	2.14	2.59	3.06	2.55	1.86	0.0145	1.46
HCI-001, days in culture: 397	1.66	1.84	2.19	2.62	1.93	1.21	0.00832	1.25
HCI-001, days in culture: 401	1.75	1.39	1.52	1.38	1.26	1.52	0.00247	1.47
HCI-011.E2, days in culture: 74	2.1	1.95	2.01	2.04	1.63	1.31	-0.00194	2.23
HCI-012, days in culture: 214	3.56	3.14	1.65	2.13	2.18	0.301	0.00686	1.93
HCI-012, days in culture: 243	2.35	2.75	1.8	2.23	1.49	1.87	0.00753	2.29
HCI-012, days in culture: 256	1.59	1.79	2.4	3.03	2.03	1.01	-0.000283	2.33
HCI-012, days in culture: 284	2.11	2.32	1.6	2.02	1.71	1.47	0.00771	3.35
HCI-024, days in culture: 202	1.48	1.18	1.56	1.67	0.953	1.09	0.00631	1.74
HCI-024, days in culture: 231	1.05	1.07	1.18	0.978	0.782	0.83	0.00137	1.07
HCI-024, days in culture: 254	1.94	1.16	1.05	1.38	1.28	0.958	0.00459	0.909
HCI-025, days in culture: 175	1.51	1.63	1.71	2.13	2.44	1.28	0.0136	1.6
HCI-025, days in culture: 189	2.13	1.92	1.2	1.78	1.33	0.709	0.00308	2.68
HCI-025, days in culture: 212	1.57	0.956	1.22	1.48	0.341	1.41	0.0176	1.14
HCI-025, days in culture: 224	2.08	1.8	1.69	1.65	2.16	0.525	0.00432	1.85
